Results on 32 molecules are retold here after US20260365663A1, “EMOPAMIL-BINDING PROTEIN INHIBITORS AND USES THEREOF” (BIOGEN MA INC., priority 2022, published 2026).

The first assay deals with T1, EBP (Homo sapiens, UniProt Q15125).
T1 construct: HEK293T cells were utilized as the source of EBP enzyme; endogenous in cells; host or cells: HEK293T
T1 sequence (Q15125 whole entry): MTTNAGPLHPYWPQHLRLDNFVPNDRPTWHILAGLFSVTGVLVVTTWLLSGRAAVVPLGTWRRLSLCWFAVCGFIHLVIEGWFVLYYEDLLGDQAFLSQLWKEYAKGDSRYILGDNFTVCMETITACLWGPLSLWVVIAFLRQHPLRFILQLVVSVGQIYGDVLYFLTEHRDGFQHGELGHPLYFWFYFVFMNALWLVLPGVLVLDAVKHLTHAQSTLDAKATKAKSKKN
Briefly: EBP Functional Assay (EBP immunoaffinity LC-MS assay). It counts as biochemical.
Settings: not given
Here is the method:
The EBP immunoaffinity (IA) LC-MS assay measures the potency of small molecule inhibitors of EBP by quantifying their concentration-dependent changes in the enzyme's substrate and product using liquid chromatography atmospheric pressure chemical ionization multiple reaction monitoring mass spectrometry (LC-APCI MRM MS). HEK293T cells were utilized as the source of EBP enzyme. The enzyme was incubated with the small molecule inhibitors at variable concentrations for 30 min. Deuterated form of EBP substrate, zymosterol-d5 (Avanti Polar Lipids, Cat #700068P-1 mg), was then added and the plate was incubated at 37 °C for 4 h. Finally, the sterol isomers were extracted and injected to LC-APCI MRM MS. MRM transition used for the quantification for both zymosterol and dihydrolathosterol (substrate and product of EBP enzymatic reaction, respectively) is 372.3-203.2, CE 30 and DP 80 in positive ion mode. Percent conversion of the zymosterol-d5 to dehydrolathosterol-d5 was used to derive IC50 curves. Tasin-1 (1′-[(4-Methoxyphenyl)sulfonyl]-4-methyl-1,4′-bipiperidine, CAS 792927-06-1) was used as the reference small molecule inhibitor.
Percent conversion versus the compound concentration data were fit to the following 4-parameter logistic model to generate IC50 curves: […]
`Cc1cc(S(=O)(=O)N2CC3(CCC(N4CCOCC4)C3)C2)n(C)n1` (centres unmarked) [Example 36, 4-(2-((1,3-Dimethyl-1H-pyrazol-5-yl)sulfonyl)-2-azaspiro[3.4]octan-6-yl)morpholine] displayed an IC50 of 100 to 500 nM. Still for that read-out and setting: as for `Cc1nn(C)c(S(=O)(=O)N2CC3(CCC(N4CCOCC4)C3)C2)c1Cl` (centres unmarked) [Example 37, 4-(2-((4-Chloro-1,3-dimethyl-1H-pyrazol-5-yl)sulfonyl)-2-azaspiro[3.4]octan-6-yl)morpholine], the figure is 100 to 500 nM; as for `Cc1nn(C)c(S(=O)(=O)N2CC3(CCC(N4CCOCC4)C3)C2)c1C(F)F` (centres unmarked) [Example 38, 4-(2-((4-(Difluoromethyl)-1,3-dimethyl-1H-pyrazol-5-yl)sulfonyl)-2-azaspiro[3.4]octan-6-yl)morpholine], 100 to 500 nM. The same measure, in the same setting: the result for `COc1ccc(S(=O)(=O)N2CC3(CCC(N4CCOCC4)C3)C2)c(C(F)(F)F)n1` (centres unmarked) [Example 39, 4-(2-((6-Methoxy-2-(trifluoromethyl)pyridin-3-yl)sulfonyl)-2-azaspiro[3.4]octan-6-yl)morpholine] reads less than 100 nM; that for `Cc1nc(C(F)(F)F)ccc1S(=O)(=O)N1CC2(CCC(N3CCOCC3)C2)C1` (centres unmarked) [Example 40, 4-(2-((2-Methyl-6-(trifluoromethyl)pyridin-3-yl)sulfonyl)-2-azaspiro[3.4]octan-6-yl)morpholine], less than 100 nM; that for `Cc1cc(C(F)(F)F)ncc1S(=O)(=O)N1CC2(CCC(N3CCOCC3)C2)C1` (centres unmarked) [Example 41, 4-(2-((4-Methyl-6-(trifluoromethyl)pyridin-3-yl)sulfonyl)-2-azaspiro[3.4]octan-6-yl)morpholine], 100 to 500 nM. Molecule `Cc1nc(Cl)ccc1S(=O)(=O)N1CC2(CCC(N3CCOCC3)C2)C1` (centres unmarked) [Example 42, 4-(2-((6-Chloro-2-methylpyridin-3-yl)sulfonyl)-2-azaspiro[3.4]octan-6-yl)morpholine] displayed an IC50 of less than 100 nM. Turning to `O=S(=O)(c1ccc(OC(F)F)cc1)N1CC2(CCC(N3CCOCC3)C2)C1` (centres unmarked) [Example 44, 4-(2-((4-(Difluoromethoxy)phenyl)sulfonyl)-2-azaspiro[3.4]octan-6-yl)morpholine], the IC50 fell in the range of 500 to 3000 nM. On the same count and under the same terms, as for `Cc1ccc(S(=O)(=O)N2CC3(CCC(N4CCOCC4)C3)C2)c(C)c1` (centres unmarked) [Example 45, 4-(2-((2,4-Dimethylphenyl)sulfonyl)-2-azaspiro[3.4]octan-6-yl)morpholine], the figure is less than 100 nM; as for `O=S(=O)(c1ccc(F)cc1F)N1CC2(CCC(N3CCOCC3)C2)C1` (centres unmarked) [Example 46, 4-(2-((2,4-Difluorophenyl)sulfonyl)-2-azaspiro[3.4]octan-6-yl)morpholine], 500 to 3000 nM; as for `Cc1cc(C)c(S(=O)(=O)N2CC3(CCC(N4CCOCC4)C3)C2)cn1` (centres unmarked) [Example 47, 4-(2-((4,6-Dimethylpyridin-3-yl)sulfonyl)-2-azaspiro[3.4]octan-6-yl)morpholine], 100 to 500 nM.

Regarding `COc1ccc(S(=O)(=O)N2CC3(CCC(N4CCOCC4)C3)C2)c(C)n1` (centres unmarked) [Example 48, 4-(2-((6-methoxy-2-methylpyridin-3-yl)sulfonyl)-2-azaspiro[3.4]octan-6-yl)morpholine], the IC50 is less than 100 nM.

The molecule `N#Cc1cc(F)cc(S(=O)(=O)N2CC3(CC[C@@H](N4CCOCC4)C3)C2)c1` [Example 50, (R)-3-Fluoro-5-((6-morpholino-2-azaspiro[3.4]octan-2-yl)sulfonyl)benzonitrile] gave an IC50 of 500 to 3000 nM. Same read-out and setting: as for `N#Cc1cc(F)cc(S(=O)(=O)N2CC3(CC[C@H](N4CCOCC4)C3)C2)c1` [Example 52, (S)-3-Fluoro-5-((6-morpholino-2-azaspiro[3.4]octan-2-yl)sulfonyl)benzonitrile], the figure is 500 to 3000 nM; as for `Cc1cc(S(=O)(=O)N2CC3(CC(N4CCC(C)CC4)CO3)C2)n(C)n1` (centres unmarked) [Example 55, 2-((1,3-Dimethyl-1H-pyrazol-5-yl)sulfonyl)-7-(4-methylpiperidin-1-yl)-5-oxa-2-azaspiro[3.4]octane], 100 to 500 nM; as for `COc1ccc(S(=O)(=O)N2CC3(CC(N4CCC(C)CC4)CO3)C2)c(C)n1` (centres unmarked) [Example 56, 2-((6-Methoxy-2-methylpyridin-3-yl)sulfonyl)-7-(4-methylpiperidin-1-yl)-5-oxa-2-azaspiro[3.4]octane], less than 100 nM.

As to `Cc1nc(C(C)(F)F)ccc1S(=O)(=O)N1CC2(CC(N3CC4(CCO4)C3)C2)C1` [Example 68, 6-(2-((6-(1,1-difluoroethyl)-2-methylpyridin-3-yl)sulfonyl)-2-azaspiro[3.3]heptan-6-yl)-1-oxa-6-azaspiro[3.3]heptane], the IC50 was in the range of 500 to 3000 nM.

Still in this assay, the particulars now being: HEK293T cells as source of EBP enzyme; zymosterol-d5 substrate; inhibitor 30 min, then 37 °C for 4 h; percent conversion to dehydrolathosterol-d5 by LC-APCI MRM MS; read-out: EBP Functional Assay.
Turning to `COc1cc(S(=O)(=O)N2CC3(CCC(N4CCOCC4)C3)C2)n(C)n1` (centres unmarked) [Example 34, 4-(2-((3-Methoxy-1-methyl-1H-pyrazol-5-yl)sulfonyl)-2-azaspiro[3.4]octan-6-yl)morpholine], the IC50 fell in the range of 100 to 500 nM. Regarding `Cn1nc(C(F)(F)F)cc1S(=O)(=O)N1CC2(CCC(N3CCOCC3)C2)C1` (centres unmarked) [Example 35, 4-(2-((1-Methyl-3-(trifluoromethyl)-1H-pyrazol-5-yl)sulfonyl)-2-azaspiro[3.4]octan-6-yl)morpholine], the IC50 lay in the range of 100 to 500 nM. For the molecule `Cc1cc(C)c(S(=O)(=O)N2CC3(CCC(N4CCOCC4)C3)C2)c(C)c1` (centres unmarked) [Example 43, 4-(2-(Mesitylsulfonyl)-2-azaspiro[3.4]octan-6-yl)morpholine], the IC50 is less than 100 nM. On the same count and under the same terms, as for `Cn1nc(C(F)(F)F)cc1S(=O)(=O)N1CC2(CC[C@@H](N3CCOCC3)C2)C1` [Example 49, (R)-4-(2-((1-Methyl-3-(trifluoromethyl)-1H-pyrazol-5-yl)sulfonyl)-2-azaspiro[3.4]octan-6-yl)morpholine], the figure is 100 to 500 nM; as for `Cn1nc(C(F)(F)F)cc1S(=O)(=O)N1CC2(CC[C@H](N3CCOCC3)C2)C1` [Example 51, (S)-4-(2-((1-methyl-3-(trifluoromethyl)-1H-pyrazol-5-yl)sulfonyl)-2-azaspiro[3.4]octan-6-yl)morpholine], 100 to 500 nM. Consider `Cc1cc(C)c(S(=O)(=O)N2CC3(CC(N4CCOCC4)CO3)C2)c(C)c1` (centres unmarked) [Example 53, 2-(Mesitylsulfonyl)-7-morpholino-5-oxa-2-azaspiro[3.4]octane], for which the IC50 was 100 to 500 nM.

For `CC1CCN(C2COC3(C2)CN(S(=O)(=O)c2ccc(OC(F)F)cc2)C3)CC1` (centres unmarked) [Example 54, 2-((4-(Difluoromethoxy)phenyl)sulfonyl)-7-(4-methylpiperidin-1-yl)-5-oxa-2-azaspiro[3.4]octane], the IC50 lay within 100 to 500 nM. In the case of `Cn1nc(C(F)(F)F)cc1S(=O)(=O)N1CC2(C[C@@H](N3CCOCC3)CO2)C1` [Example 57, (R)-2-((1-methyl-3-(trifluoromethyl)-1H-pyrazol-5-yl)sulfonyl)-7-morpholino-5-oxa-2-azaspiro[3.4]octane], the IC50 lay in the range of 500 to 3000 nM. Take `CN(C1CCC(F)(F)CC1)C1COC2(C1)CN(S(=O)(=O)c1cc(C#N)ccc1F)C2` (centres unmarked) [Example 59, 3-((7-((4,4-Difluorocyclohexyl)(methyl)amino)-5-oxa-2-azaspiro[3.4]octan-2-yl)sulfonyl)-4-fluorobenzonitrile]: the IC50 is less than 100 nM. As to `Cc1nc(C(C)(F)F)ccc1S(=O)(=O)N1CC2(CC(NC3COC3)C2)C1` [Example 69, 2-((6-(1,1-difluoroethyl)-2-methylpyridin-3-yl)sulfonyl)-N-(oxetan-3-yl)-2-azaspiro[3.3]heptan-6-amine], the IC50 was in the range of 500 to 3000 nM. The same measure, in the same setting: the result for `Cc1nc(C(C)(F)F)ccc1S(=O)(=O)N1CC2(CC(NC3CC4(COC4)C3)C2)C1` (centres unmarked) [Example 70, 2-((6-(1,1-difluoroethyl)-2-methylpyridin-3-yl)sulfonyl)-N-(2-oxaspiro[3.3]heptan-6-yl)-2-azaspiro[3.3]heptan-6-amine] reads 100 to 500 nM; that for `Cc1nc(C(C)(F)F)ccc1S(=O)(=O)N1CC2(CC(NCC3CCOCC3)C2)C1` [Example 71, 2-((6-(1,1-difluoroethyl)-2-methylpyridin-3-yl)sulfonyl)-N-((tetrahydro-2H-pyran-4-yl)methyl)-2-azaspiro[3.3]heptan-6-amine], less than 100 nM; that for `Cc1nc(C(C)(F)F)ccc1S(=O)(=O)N1CC2(CC(N(C)C3CCOCC3)C2)C1` [Example 72, 2-((6-(1,1-difluoroethyl)-2-methylpyridin-3-yl)sulfonyl)-N-methyl-N-(tetrahydro-2H-pyran-4-yl)-2-azaspiro[3.3]heptan-6-amine], less than 100 nM. In the case of `Cc1nc(C(C)(F)F)ccc1S(=O)(=O)N1CC2(CC(N(C)C3COC3)C2)C1` [Example 73, 2-((6-(1,1-difluoroethyl)-2-methylpyridin-3-yl)sulfonyl)-N-methyl-N-(oxetan-3-yl)-2-azaspiro[3.3]heptan-6-amine], the IC50 fell in the range of 100 to 500 nM. Turning to `Cc1nc(C(C)(F)F)ccc1S(=O)(=O)N1CC2(CC(N(C)C3CC4(COC4)C3)C2)C1` (centres unmarked) [Example 74, 2-((6-(1,1-difluoroethyl)-2-methylpyridin-3-yl)sulfonyl)-N-methyl-N-(2-oxaspiro[3.3]heptan-6-yl)-2-azaspiro[3.3]heptan-6-amine], the IC50 is less than 100 nM.
